This note sets out measurements from patent publication US20260184663A1, “INDENE COMPOUNDS, PHARMACEUTICAL COMPOSITIONS THEREOF, AND THEIR THERAPEUTIC APPLICATIONS” (NucMito Pharmaceuticals co. Ltd., priority 2022, published 2026).

Holding throughout (assay type): cell-based
The subject of experiment [1] is MDA-MB-231 (breast cancer). The experiment can be described thus: Antiproliferative activity (CCK-8 cell viability), MDA-MB-231. The settings on record: Homo sapiens, 72 h; for inhibition at 3.3 µM: Compound concentration: 3.3 μM; for inhibition at 10 µM: Compound concentration: 10 μM; for inhibition at 30 µM: Compound concentration: 30 μM. The procedure, abridged: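 Growth inhibition of human MDA-MB-231 breast cancer cells was assessed with a Cell Counting Kit-8. Cells cultured in DMEM plus 10% FBS were seeded at 2,000-5,000 cells/well, treated after attachment, and kept 72 h at 37° C. CCK-8 solution (10 μL) was added for 4 h, and absorbance at 450 nm was compared with DMSO-treated controls.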

The subject of experiment [2] is HepG2 (liver cancer). The experiment can be described thus: Antiproliferative activity (CCK-8 cell viability), HepG2. The settings on record: Homo sapiens, 72 h, read-out: Antiproliferative activity in cancerous cells, HepG2 (inhibition of cell growth); for inhibition at 3.3 µM: Compound concentration: 3.3 μM; for inhibition at 10 µM: Compound concentration: 10 μM; for inhibition at 30 µM: Compound concentration: 30 μM. Summed up:
(§1)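 Growth inhibition graded in bands from percent viability against DMSO vehicle, read as CCK-8 absorbance at 450 nm. Compound tested at 3.3, 10 or 30 μM for 72 h, 37 °C; media contained 10% FBS: DMEM for HepG2/SW480, MEM for HeLa, F-12K for A549.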

In experiment [3] the test system is SW480 (colon cancer). The experiment can be described thus: Antiproliferative activity (CCK-8 cell viability), SW480. The settings on record: Homo sapiens, 72 h; for inhibition at 3.3 µM: Compound concentration: 3.3 μM; for inhibition at 10 µM: Compound concentration: 10 μM; for inhibition at 30 µM: Compound concentration: 30 μM. Summed up: as §1
Experiment [4] has as its system B16F10 (malignant melanoma). The experiment can be described thus: Antiproliferative activity (CCK-8 cell viability), B16F10. The settings on record: Mus musculus, 72 h, read-out: Antiproliferative activity in cancerous cells, B16F10 (inhibition of cell growth); for inhibition at 3.3 µM: B16-F10, Compound concentration: 3.3 μM; for inhibition at 10 µM: B16-F10, Compound concentration: 10 μM; for inhibition at 30 µM: B16-F10, Compound concentration: 30 μM. Summed up: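 Cell growth inhibition was measured in B16F10 malignant melanoma cells with a Cell Counting Kit-8 viability assay. Cells were maintained in DMEM plus 10% fetal bovine serum, seeded at 2,000-5,000 cells/well in 96-well plates, and treated for 72 h at 37° C. Viability was expressed relative to DMSO-treated vehicle control wells.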

Experiment [5] relates to A431 (epidermoid carcinoma). The experiment can be described thus: Antiproliferative activity (CCK-8 cell viability), A431. The settings on record: Homo sapiens, 72 h; for inhibition at 3.3 µM: A-431, Compound concentration: 3.3 μM; for inhibition at 10 µM: A-431, Compound concentration: 10 μM; for inhibition at 30 µM: A-431, Compound concentration: 30 μM. Summed up:
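This growth inhibition assay used A431 cells maintained in Dulbecco's modified Eagle's medium plus 10% fetal bovine serum. Cells were seeded in 96-well plates, treated with compound for 72 h at 37° C., and then given 10 μL CCK-8 solution. After a further 4 h, absorbance was read at 450 nm.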

Experiment [6] deals with A549 (lung adenocarcinoma). The experiment can be described thus: Antiproliferative activity (CCK-8 cell viability), A549. The settings on record: Homo sapiens, 72 h, read-out: Antiproliferative activity in cancerous cells, A549 (inhibition of cell growth); for inhibition at 3.3 µM: Compound concentration: 3.3 μM; for inhibition at 10 µM: Compound concentration: 10 μM; for inhibition at 30 µM: Compound concentration: 30 μM. The procedure, abridged: as §1

Experiment [7] relates to HeLa (cervical cancer). The experiment can be described thus: Antiproliferative activity (CCK-8 cell viability), HeLa. The settings on record: Homo sapiens, 72 h, read-out: Antiproliferative activity in cancerous cells, HELA (inhibition of cell growth); for inhibition at 3.3 µM: Compound concentration: 3.3 μM; for inhibition at 10 µM: Compound concentration: 10 μM; for inhibition at 30 µM: Compound concentration: 30 μM. The procedure, abridged:
as §1

The mark [8] stands for this setting: read-out: Antiproliferative activity in cancerous cells, MDA-MB-231 (inhibition of cell growth).
Setting [9] is: read-out: Antiproliferative activity in cancerous cells, SW480 (inhibition of cell growth).
[10] abbreviates: read-out: Antiproliferative activity in cancerous cells, A431 (inhibition of cell growth).

The structures appear in SMILES notation. Read-outs that look alike come from different tables or passages of the source.

Consider `CC1=C(CC(=O)O)c2cc(I)ccc2/C1=C/c1ccc(COCc2ccc(F)cc2)cc1` [E18, (E)-2-(1-(4-(((4-Fluorobenzyl)oxy)methyl)benzylidene)-5-iodo-2-methyl-1H-inden-3-yl)acetic acid], for which the inhibition at 3.3 µM in experiment [1] (setting [8]) is less than 30%; in experiment [2] it was less than 30%; in experiment [3] (setting [9]), less than 30%; in experiment [4], 30 to 50%; in experiment [5] (setting [10]), no less than 50%; in experiment [6], less than 30%. In experiment [7], the inhibition at 3.3 µM is no less than 50%. Further, the inhibition at 10 µM in experiment [1] (setting [8]), in experiment [2], in experiment [3] (setting [9]), in experiment [4], in experiment [5] (setting [10]) and in experiment [6] was no less than 50% throughout. For the same compound, the inhibition at 10 µM in experiment [7] was no less than 50%. Besides, the inhibition at 30 µM in experiment [1] (setting [8]), in experiment [2], in experiment [3] (setting [9]), in experiment [4], in experiment [5] (setting [10]) and in experiment [6] was no less than 50% in each case. For the same compound, the inhibition at 30 µM in experiment [7] is no less than 50%.
With `CCc1ccc(Oc2ccc(/C=C3/C(C)=C(CC(=O)O)c4cc(Cl)ccc43)cc2)cc1` [C85, (Z)-2-(5-Chloro-1-(4-(4-ethylphenoxy)benzylidene)-2-methyl-1H-inden-3-yl)acetic acid], the inhibition at 3.3 µM in experiment [1] (setting [8]) is no less than 50%; in experiment [2], no less than 50%; in experiment [3] (setting [9]), less than 30%; in experiment [4], 30 to 50%; in experiment [5] (setting [10]), no less than 50%; in experiment [6] it was less than 30%. The inhibition at 3.3 µM in experiment [7] is no less than 50%. In addition, the inhibition at 10 µM in experiment [1] (setting [8]), in experiment [2], in experiment [3] (setting [9]), in experiment [4], in experiment [5] (setting [10]) and in experiment [6] was no less than 50% in each case. For the same compound, the inhibition at 10 µM in experiment [7] is no less than 50%.
Regarding `CC1=C(CC(=O)O)c2cc(Cl)ccc2/C1=C\c1ccc(CCc2ccccc2)cc1` [B158, (Z)-2-(5-Chloro-2-methyl-1-(4-phenethylbenzylidene)-1H-inden-3-yl)acetic acid], the inhibition at 3.3 µM in experiment [1] (setting [8]) was less than 30%; in experiment [2], less than 30%; in experiment [3] (setting [9]) it was less than 30%; in experiment [4], 30 to 50%; in experiment [5] (setting [10]), less than 30%; in experiment [6], less than 30%. Besides, the inhibition at 3.3 µM in experiment [7] is less than 30%. Moreover, the inhibition at 10 µM in experiment [1] (setting [8]) is less than 30%; in experiment [2] it was no less than 50%; in experiment [3] (setting [9]), less than 30%; in experiment [4], no less than 50%; in experiment [5] (setting [10]) it was less than 30%; in experiment [6], less than 30%. Moreover, the inhibition at 10 µM in experiment [7] is no less than 50%. In addition, the inhibition at 30 µM was 30 to 50% in experiment [1] (read-out: Antiproliferative activity in cancerous cells, MDA-MB-231) and 30 to 50% in experiment [3] (read-out: Antiproliferative activity in cancerous cells, SW480).
On to `CC1=C(CC(=O)O)c2cc(F)ccc2/C1=C\c1cccc(-c2ccc(C(F)(F)F)cc2)c1` [D1, (Z)-2-(5-Fluoro-2-methyl-1-((4′-(trifluoromethyl)-[1,1′-biphenyl]-3-yl)-methylene)-1H-inden-3-yl)acetic acid], for which the inhibition at 3.3 µM was less than 30% in experiment [1] (setting [8]); 30 to 50% in experiment [2]; less than 30% in experiment [3] (setting [9]); less than 30% in experiment [4]; 30 to 50% in experiment [5] (setting [10]); less than 30% in experiment [6]. Further, the inhibition at 3.3 µM in experiment [7] is no less than 50%. Moreover, the inhibition at 10 µM in experiment [1] (setting [8]), in experiment [2], in experiment [3] (setting [9]), in experiment [4], in experiment [5] (setting [10]) and in experiment [6] was no less than 50% throughout. In addition, in experiment [7], the inhibition at 10 µM is no less than 50%. Further, the inhibition at 30 µM in experiment [1] (setting [8]), in experiment [2], in experiment [3] (setting [9]), in experiment [4], in experiment [5] (setting [10]) and in experiment [6] was no less than 50% throughout. Besides, the inhibition at 30 µM in experiment [7] was no less than 50%.
In the case of `CC1=C(CC(=O)O)c2cc(F)ccc2/C1=C\c1cccc(Sc2ccc(F)cc2)c1` [C42, (Z)-2-(5-Fluoro-1-(3-((4-fluorophenyl)thio)benzylidene)-2-methyl-1H-inden-3-yl)acetic acid], the inhibition at 3.3 µM in experiment [1] (setting [8]) was no less than 50%; in experiment [2], less than 30%; in experiment [3] (setting [9]), less than 30%; in experiment [4], 30 to 50%; in experiment [5] (setting [10]), less than 30%; in experiment [6], less than 30%. In experiment [7], the inhibition at 3.3 µM was less than 30%. Moreover, the inhibition at 10 µM in experiment [1] (setting [8]), in experiment [2], in experiment [3] (setting [9]), in experiment [4], in experiment [5] (setting [10]) and in experiment [6] was no less than 50% throughout. Further, the inhibition at 10 µM in experiment [7] is no less than 50%.
`CC1=C(CC(=O)O)c2cc(F)ccc2/C1=C\c1cccc([S+]([O-])c2ccc(F)cc2)c1` (centres unmarked) [C43, (Z)-2-(5-Fluoro-1-(3-((4-fluorophenyl)sulfinyl)benzylidene)-2-methyl-1H-inden-3-yl)acetic acid]: the inhibition at 3.3 µM in experiment [1] (setting [8]) is 30 to 50%; in experiment [2] it was less than 30%; in experiment [3] (setting [9]), less than 30%; in experiment [4] it was less than 30%; in experiment [5] (setting [10]) it was 30 to 50%; in experiment [6], less than 30%. In addition, in experiment [7], the inhibition at 3.3 µM was less than 30%. Also, the inhibition at 10 µM in experiment [1] (setting [8]) was no less than 50%; in experiment [2], less than 30%; in experiment [3] (setting [9]), less than 30%; in experiment [4], less than 30%; in experiment [5] (setting [10]), 30 to 50%; in experiment [6], 30 to 50%. Further, the inhibition at 10 µM in experiment [7] lay in the range of 30 to 50%. Further, the inhibition at 30 µM in experiment [5] (read-out: Antiproliferative activity in cancerous cells, A431) lay in the range of 30 to 50%.
